Data on 40 compounds can be found in PubChem BioAssay AID1552 (Sanford-Burnham Center for Chemical Genomics, 2009).

In general, Kd refers to a measure of binding affinity in units of concentration.

The structures appear in SMILES notation. The source made the active and inactive calls. No rule for the calls is given here.

The target of the test is Ubiquitin-conjugating enzyme E2 N (Homo sapiens) (UniProt P61088). Kind of test: NMR detection of UBE2N ligand binding – biophysical, purified protein (AID 1552). Particulars: NMR binding to purified UBE2N.
Sequence of Ubiquitin-conjugating enzyme E2 N (Homo sapiens) (P61088 whole entry, looked up): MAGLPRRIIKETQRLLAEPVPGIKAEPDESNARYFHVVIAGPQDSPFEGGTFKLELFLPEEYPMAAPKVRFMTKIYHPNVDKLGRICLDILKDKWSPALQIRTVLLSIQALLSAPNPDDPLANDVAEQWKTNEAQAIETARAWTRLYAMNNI
Consider `O=C1NC(=O)C(c2ccccc2)C(=O)N1`, for which the Kd was > 4 mM (inactive).
Take `Nc1ncnc(NCc2cccnc2)c1[N+](=O)[O-]`: the Kd is > 4 mM (inactive).
In the case of `COc1ccc([C@H]2COc3c(ccc(O)c3OC)C2)c(OC)c1O`, the Kd was > 4 mM (inactive).
Turning to `O=c1[nH]c(=O)c2[nH]cnc2[nH]1`, the Kd was > 4 mM (inactive).
As to `COC(=O)c1c(C)cc(OC(=O)c2c(C)cc(O)c(C=O)c2O)c(C)c1O`, the Kd is > 4 mM (inactive).
In the case of `OCc1ccc2c(c1)OCO2`, the Kd was > 4 mM (inactive).
With `Cc1c(-c2ccc(F)cc2)[n+](=O)c2c(n1[O-])CCC2`, the Kd is > 4 mM (inactive).
In the case of `Nc1cccc(C(=O)Nc2ccc(N)cc2Cl)c1`, the Kd was > 4 mM (inactive).
Turning to `OC1CSc2ncnn2C1` (stereo not given), the Kd was > 4 mM (inactive).
The same measure for `OCc1csc(-c2ccccc2)n1`: > 4 mM (inactive).
The result for `NC(=O)C12CC3CC(C1)C(=O)C(C3)C2` reads > 4 mM (inactive); that for `OC1CCN(C(=S)NC2CC2)CC1`, > 4 mM (inactive); that for `Cc1ccc(=O)[nH]c1`, > 4 mM (inactive).
Consider `Cc1nc(SCC(=O)c2c[nH]c3ccccc23)n[nH]1`, for which the Kd was > 4 mM (inactive).
As to `O=C1CSC(=Nc2cccc(C(F)(F)F)c2)N1`, the Kd was > 4 mM (inactive).
In the case of `CN(C)c1nc(N2CCOCC2)c2cnn(C)c2n1`, the Kd was > 4 mM (inactive).
As to `COc1ccc(Cl)cc1-c1nc(-c2ccncc2)no1`, the Kd is > 4 mM (inactive).
As for `NC1=NC(=O)CC(C(=O)Nc2ccccc2)S1` (stereo not given), the Kd is > 4 mM (inactive).
With `Clc1ccc2c(N3CCNCC3)ccnc2c1`, the Kd is > 4 mM (inactive).
Take `CCC(=O)Nc1ccc(-c2nn3c(C)nnc3s2)cc1`: the Kd was > 4 mM (inactive).
The result for `O=C1CC2OCC=C3CN4CC[C@]56c7ccccc7N1C5[C@H]2[C@H]3CC46` (stereo not given in full) reads > 4 mM (inactive); that for `CCOc1ccc2ccccc2c1C(=O)N1CCOCC1`, > 4 mM (inactive); that for `N#CCSc1nnc2ccc3ccccc3n12`, > 4 mM (inactive).
As to `CC(=O)OC[C@@]1(O)C[C@@]23CCC4c5ccoc5CC[C@]4(C)C2CC[C@@H]1C3` (stereo not given in full), the Kd is > 4 mM (inactive).
As for `O=C1C=C(O)c2ccccc2C1=O`, the Kd is > 4 mM (inactive).
As to `COc1ccc(N2C(=O)CCC2=O)c(OC)c1`, the Kd was > 4 mM (inactive).
`CC(=O)Nc1ccc(NC(C)=O)c(C(F)(F)F)c1`: the Kd was > 4 mM (inactive).
`O=c1[nH]cc(CN2CCOCC2)c(=O)[nH]1`: the Kd was > 4 mM (inactive).
With `CC(=O)O[C@H]1C(=O)[C@@]2(C)C([C@H](OC(=O)c3ccccc3)[C@]3(O)C[C@H](OC(=O)[C@H](O)[C@@H](NC(=O)c4ccccc4)c4ccccc4)C(C)=C1C3(C)C)[C@]1(OC(C)=O)CO[C@@H]1C[C@@H]2O` (stereo not given in full), the Kd was > 4 mM (inactive).
Regarding `O=C(O)CCCCC1SCC2NC(=O)NC21` (stereo not given), the Kd is > 4 mM (inactive).
The same measure for `CC[C@H]1CN2CCC1C[C@@H]2[C@@H](O)c1ccnc2ccc(OC)cc12` (stereo not given in full): > 4 mM (inactive).
As for `CC1(NC(=O)NCc2ccccc2)CCS(=O)(=O)C1` (stereo not given), the Kd is > 4 mM (inactive).
In the case of `OCC1CNc2ccccc2O1` (stereo not given), the Kd is > 4 mM (inactive).
For `NCCc1ccc(S(N)(=O)=O)cc1`, the Kd is > 4 mM (inactive).
The result for `CCOc1ccc(C)cc1S(=O)(=O)n1ccnc1` reads > 4 mM (inactive).
With `Cn1nnc2c(N3CCC(C(N)=O)CC3)ncnc21`, the Kd is > 4 mM (inactive).
Take `Nc1nonc1-c1nc2ccccc2[nH]1`: the Kd was > 4 mM (inactive).
For the compound `CC(C)C(=O)NCC(c1ccco1)N1CCOCC1` (stereo not given), the Kd was > 4 mM (inactive).
Turning to `C=C(C)C1Cc2c(ccc(C(=O)O)c2O)O1` (stereo not given), the Kd is > 4 mM (inactive).
For the compound `NC(c1ccccc1)c1ccccn1` (stereo not given), the Kd was > 4 mM (inactive).
